Patent US20230348369A1 (Cytokinetics, Inc., priority 2020, published 2023)
pEC50: −log10 of the molar value. Where two headings read alike, the source gives them in different places.

Target: human NAMPT (Homo sapiens, UniProt P43490)
Assay: Human recombinant enzyme assay (NMN fluorescence biochemical assay, activation of NAMPT)
Method: Compounds described herein were assayed for their ability to stimulate the synthesis of nicotinamide mononucleotide (NMN) by the enzyme NAMPT. The human recombinant enzyme assay measures the activation of the enzyme activity by compounds using recombinant enzyme and substrates in a buffered cell-free system. The assay conditions closely mimic cellular environments. Dose responses were measured using an assay to detect the formation of nicotinamide mono-nucleotide. All experiments were performed in the 384-well format. […] Enzyme reactions were initiated with the addition of 10 μL of a solution containing the substrates. The final assay conditions were as follows: 6 nM human NAMPT, 2.5 mM ATP, 20 μM PRPP and 150 μM nicotinamide in 50 mM HEPES, pH 7.2, 1 mM DTT, 1 mM CHAPS 50 mM NaCl, 100 mM MgCl2. Following an incubation of 60 min at ambient temperature, 10 μL of 20% acetophenone in DMSO was added, followed by 10 μL of 2 M KOH and 40 μL of formic acid. The plates were read for fluorescence (Excitation/Emission=355 nm/460 nm) using an EnVision plate reader after 40 mins of incubation at ambient temperature.

[1] = Table A, human recombinant NAMPT, NMN formation, 60 min
[2] = Table A, human recombinant NAMPT, NMN formation, 60 min, read-out: EC50 Human

Chain of human NAMPT (P43490 whole entry): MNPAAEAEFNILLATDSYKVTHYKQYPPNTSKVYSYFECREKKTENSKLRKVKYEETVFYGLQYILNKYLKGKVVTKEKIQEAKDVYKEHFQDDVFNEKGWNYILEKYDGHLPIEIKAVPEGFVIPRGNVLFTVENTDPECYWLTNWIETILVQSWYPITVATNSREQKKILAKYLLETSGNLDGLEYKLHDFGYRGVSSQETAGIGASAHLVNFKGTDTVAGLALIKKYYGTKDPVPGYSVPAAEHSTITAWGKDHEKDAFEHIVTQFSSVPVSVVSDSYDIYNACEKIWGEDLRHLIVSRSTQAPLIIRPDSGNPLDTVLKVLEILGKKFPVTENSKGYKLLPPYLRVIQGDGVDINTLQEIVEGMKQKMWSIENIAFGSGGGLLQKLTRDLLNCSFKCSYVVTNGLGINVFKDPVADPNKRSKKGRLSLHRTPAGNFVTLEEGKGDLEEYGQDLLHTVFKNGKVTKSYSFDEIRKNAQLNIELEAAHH

| SMILES | AC1.4 Human [1] | pEC50 [2] | pEC50 |
| --- | --- | --- | --- |
| CC(C)(C)OC(=O)NC1CC2(CC(NC(=O)NCc3cnco3)C2)C1 (stereo not drawn) [Compound 11, tert-butyl (6-(3-(oxazol-5-ylmethyl)ureido)spiro[3.3]heptan-2-yl)carbamate] | 11.5 µM |  |  |
| CC(C)(C)OC(=O)NC1CCC(NC(=O)NCc2ccc(C(N)=O)cc2)CC1 (stereo not drawn) [Compound 12, tert-butyl (4-(3-(4-carbamoylbenzyl)ureido)cyclohexyl)carbamate] |  | 4.40 |  |
| NC(=O)c1ccc(CNC(=O)NC2CCN(C(=O)c3ccccc3)CC2)cc1 [Compound 13, 4-((3-(1-benzoylpiperidin-4-yl)ureido)methyl)benzamide] | 17.5 µM |  |  |
| O=C(NCc1ccncc1)NC1CC2(C1)CC(NC(=O)c1ccccc1)C2 (stereo not drawn) [Compound 15, N-(6-(3-(pyridin-4-ylmethyl)ureido)spiro[3.3]heptan-2-yl)benzamide] | 10.4 µM | 4.75 |  |
| O=C(NCc1cn[nH]c1)NC1CC2(C1)CC(NC(=O)c1ccccc1)C2 (stereo not drawn) [Compound 17, N-(6-(3-((1H-pyrazol-4-yl)methyl)ureido)spiro[3.3]heptan-2-yl)benzamide] | 17.6 µM | 4.30 |  |
| COc1ccc(CNC(=O)NC2CC3(C2)CC(NC(=O)c2ccccc2)C3)cc1 (stereo not drawn) [Compound 18, N-(6-(3-(4-methoxybenzyl)ureido)spiro[3.3]heptan-2-yl)benzamide] | 18.9 µM | 4.22 |  |
| NC(=O)c1ccc(CNC(=O)N[C@H]2C[C@H](C(=O)NCc3ccccc3)C2)cc1 [Compound 21, 4-((3-((1r,3r)-3-(benzylcarbamoyl)cyclobutyl)ureido)methyl)benzamide] | 8.0 µM | 4.35 |  |
| NC(=O)c1ccc(CNC(=O)NC2CC3(CC(NCc4ccccc4)C3)C2)cc1 (stereo not drawn) [Compound 24] | 8.1 µM | 4.54 |  |
| CC(C)(C)OC(=O)N1CCC2(CC1)CC2CNC(=O)NCc1ccncc1 (stereo not drawn) [Compound 25, tert-butyl 1-((3-(pyridin-4-ylmethyl)ureido)methyl)-6-azaspiro[2.5]octane-6-carboxylate] | 5.0 µM | 4.56 |  |
| NC(=O)c1ccc(CNC(=O)NC2CC3(C2)CC(Nc2ccccn2)C3)cc1 (stereo not drawn) [Compound 26, 4-((3-(6-(pyridin-2-ylamino)spiro[3.3]heptan-2-yl)ureido)methyl)benzamide] | 2.0 µM |  | 4.78 |
| COc1ccc(CNC(=O)NCC2CC23CCN(C(=O)OC(C)(C)C)CC3)cc1 (stereo not drawn) [Compound 28, tert-butyl 1-((3-(4-methoxybenzyl)ureido)methyl)-6-azaspiro[2.5]octane-6-carboxylate] |  | 4.37 |  |
| CC(C)(C)OC(=O)N1CCC2(CC1)CC2CNC(=O)NCc1cnco1 (stereo not drawn) [Compound 30, tert-butyl 1-((3-(oxazol-5-ylmethyl)ureido)methyl)-6-azaspiro[2.5]octane-6-carboxylate] |  | 4.42 |  |
| CC(C)(C)OC(=O)N1CCC2(CC1)CC2CNC(=O)NCc1cn[nH]c1 (stereo not drawn) [Compound 31, tert-butyl 1-((3-((1H-pyrazol-4-yl)methyl)ureido)methyl)-6-azaspiro[2.5]octane-6-carboxylate] | 3.2 µM | 4.40 |  |
| NC(=O)c1ccc(CNC(=O)NC2CC3(CC(NCc4ccccn4)C3)C2)cc1 (stereo not drawn) [Compound 34, 4-((3-(6-((pyridin-2-ylmethyl)amino)spiro[3.3]heptan-2-yl)ureido)methyl)benzamide] | 12.1 µM | 4.42 |  |
| COC(=O)C1CC2(CC(NC(=O)NCc3ccc(OC)cc3)C2)C1 (stereo not drawn) [Compound 35, Methyl 6-(3-(4-methoxybenzyl)ureido)spiro[3.3]heptane-2-carboxylate] | 15.4 µM | 4.40 |  |
| COc1ccc(CNC(=O)NCCCCCNC(=O)OC(C)(C)C)cc1 [Compound 36, tert-butyl (5-(3-(4-methoxybenzyl)ureido)pentyl)carbamate] | 9.8 µM | 4.45 |  |
| COc1ccc(CNC(=O)NC2CC3(C2)CN(C(=O)OC(C)(C)C)C3)cc1 [Compound 37, tert-butyl 6-(3-(4-methoxybenzyl)ureido)-2-azaspiro[3.3]heptane-2-carboxylate] | 4.2 µM | 4.23 |  |
| COc1ccc(CNC(=O)NC2CC3(C2)CN(C(=O)Cc2ccccc2F)C3)cc1 [Compound 38, 1-(2-(2-(2-fluorophenyl)acetyl)-2-azaspiro[3.3]heptan-6-yl)-3-(4-methoxybenzyl)urea] | 13.7 µM |  | 4.36 |
| COc1ccc(CNC(=O)NC2CC3(C2)CN(C(=O)Cc2ccccc2Cl)C3)cc1 [Compound 39, 1-(2-(2-(2-chlorophenyl)acetyl)-2-azaspiro[3.3]heptan-6-yl)-3-(4-methoxybenzyl)urea] | 5.6 µM | 4.38 |  |
| COc1ccc(CNC(=O)NC2CC3(C2)CN(C(=O)Cc2ccccc2OC)C3)cc1 [Compound 40, 1-(4-methoxybenzyl)-3-(2-(2-(2-methoxyphenyl)acetyl)-2-azaspiro[3.3]heptan-6-yl)urea] | 17.2 µM | 4.62 |  |
| COc1ccc(CNC(=O)NC2CC3(C2)CN(C(=O)Cc2ccccc2C(F)(F)F)C3)cc1 [Compound 41, 1-(4-methoxybenzyl)-3-(2-(2-(2-(trifluoromethyl)phenyl)acetyl)-2-azaspiro[3.3]heptan-6-yl)urea] | 5.0 µM | 4.27 |  |
| COc1ccc(CNC(=O)NC2CC3(C2)CN(C(=O)Cc2ccccc2C)C3)cc1 [Compound 42, 1-(4-methoxybenzyl)-3-(2-(2-(o-tolyl)acetyl)-2-azaspiro[3.3]heptan-6-yl)urea] | 10.7 µM | 4.37 |  |
| COc1ccc(CNC(=O)NC2CC3(C2)CC(C(=O)NC2(c4ccccc4)CC2)C3)cc1 (stereo not drawn) [Compound 43, 6-(3-(4-methoxybenzyl)ureido)-N-(1-phenylcyclopropyl)spiro[3.3]heptane-2-carboxamide] | 4.9 µM | 4.33 |  |
| COc1ccc(CNC(=O)NC2CC3(C2)CC(C(=O)N2CCCC2c2ccccc2)C3)cc1 (stereo not drawn) [Compound 44, 1-(4-methoxybenzyl)-3-(6-(2-phenylpyrrolidine-1-carbonyl)spiro[3.3]heptan-2-yl)urea] | 10.1 µM | 4.44 |  |
| COc1ccc(CNC(=O)NC2CC3(C2)CC(C(=O)N[C@H](C)c2ccccc2)C3)cc1 (stereo partly drawn) [Compound 45, (R)-6-(3-(4-methoxybenzyl)ureido)-N-(1-phenylethyl)spiro[3.3]heptane-2-carboxamide] | 6.6 µM |  | 4.29 |
| COc1ccc(CNC(=O)NC2CC3(C2)CC(C(=O)N[C@H](CO)c2ccccc2)C3)cc1 (stereo partly drawn) [Compound 46, (S)-N-(2-hydroxy-1-phenylethyl)-6-(3-(4-methoxybenzyl)ureido)spiro[3.3]heptane-2-carboxamide] | 6.8 µM | 4.38 |  |
| COc1ccc(CNC(=O)NC2CC3(C2)CC(C(=O)N[C@@H](C)c2ccccc2)C3)cc1 (stereo partly drawn) [Compound 47, (S)-6-(3-(4-methoxybenzyl)ureido)-N-(1-phenylethyl)spiro[3.3]heptane-2-carboxamide] | 6.5 µM |  | 4.39 |
| COc1ccc(CNC(=O)NC2CC3(C2)CC(C(=O)N2CCC2c2ccccc2)C3)cc1 (stereo not drawn) [Compound 48, 1-(4-methoxybenzyl)-3-(6-(2-phenylazetidine-1-carbonyl)spiro[3.3]heptan-2-yl)urea] | 4.7 µM | 4.28 |  |
